Laboratory results from patent US5556846A, “17-heterocyclyl-14beta-5alpha-androstane, androstene and androstadiene derivatives active on the cardiovascular system, and pharmaceutical compositions containing same” (Sigma-Tau Industrie Farmaceutiche Riunite S.p.A., priority 1992, dated 1996).
pIC50: −log10 of the molar value.

Assays:
Na^+,K^+ -ATPase [1] = molecular target: T1, Na^+,K^+ -ATPase (Homo sapiens, UniProt P05023); test: displacement of the specific 3H-ouabain binding from the purified Na+,K+-ATPase receptor; conditions: for IC50: 3H-ouabain displacement, purified Na+,K+-ATPase, read-out: Binding ^3 H-Ouab. Displacement log IC50 (converted)
T1 construct: Na^+,K^+ -ATPase receptor purified according to Jorghensen; from tissue
From the text: (§1) To test the affinity for the receptor site of the Na^+,K^+ -ATPase and the inhibitory activity on the enzyme, the following tests were used: a) displacement of the specific ^3 H-ouabain binding from the Na^+,K^+ -ATPase receptor purified according to Jorghensen (Jorghensen P., BBA, 1974, 356, 36) and Erdmann (Erdmann E. et at., Arzneim.Forsh., 1984, 34, 1314): b) inhibition of the activity of the purified Na^+,K^+ -ATPase measured as % of hydrolysis of ^32 P-ATP in presence and in absence of the tested compound (Doucet A. et at., Am.

Na^+,K^+ -ATPase [2] = molecular target: T1, Na^+,K^+ -ATPase; test: inhibition of the activity of the purified Na+,K+-ATPase measured as % of hydrolysis of 32P-ATP; format: biochemical; conditions: for IC50: purified Na+,K+-ATPase, 32P-ATP hydrolysis, read-out: Inhibitory Activity log IC50 (converted)
From the text: as §1

[3] = test system: spontaneous hypertensive rats (MHS); test: blood pressure lowering in spontaneous hypertensive MHS rats (indirect tail-cuff, oral, ten days); format: in vivo, rat (Milan hypertensive strain; conditions: n = 7, 20 mg/Kg/os daily in METHOCEL 0.5% w/v; for SBP (systolic blood pressure): controls 172 +/- 2.0; for HR (heart rate): controls 328 +/- 8.6
From the text: To test the affinity for the receptor site of the Na^+,K^+ -ATPase and the inhibitory activity on the enzyme, the following tests were used: a) displacement of the specific ^3 H-ouabain binding from the Na^+,K^+ -ATPase receptor purified according to Jorghensen (Jorghensen P., BBA, 1974, 356, 36) and Erdmann (Erdmann E. et at., Arzneim.Forsh., 1984, 34, 1314): b) inhibition of the activity of the purified Na^+,K^+ -ATPase measured as % of hydrolysis of ^32 P-ATP in presence and in absence of the tested compound (Doucet A. et at., Am. […] The ability of these compounds to lower blood pressure was tested by using animal models with genetic arterial hypertension, in particular, spontaneous hypertensive rats of the Milan (MHS) (Bianchi G., Ferrari P., Barber B. The Milan Hypertensive strain. In Handbook of hypertension. Vol.4: Experimental and genetic models of hypertension. Ed. W. de jong-Elsevier Science Publishers B.V., 1984: 328-349).
The procedure adopted to test the antihypertensive activity of the compounds on the above mentioned model was the following: systolic blood pressure (SBP) and heart rate (HR) were measured by an indirect tail-cuff method in three-month old hypertensive rats (MHS) before beginning the treatment (basal values). The rats were then subdivided in two groups of at least 7 animals each, one receiving the compound the other, the control group, receiving only the vehicle. The compound, suspended in METHOCEL 0.5% (w/v), was administered daily by mouth, for ten days. SBP and HR were measured daily 6 and 24 hours after the treatment. At the end of the ten day treatment period, a washout period of at least two days was carried out, in order to check for how long the SBP was mantained low or the basal values were re-established.

[4] = literature statement; cited from earlier work

SMILES | IC50 (Na^+,K^+ -ATPase [1]) [µM] | IC50 (Na^+,K^+ -ATPase [2]) [µM] | also measured
C[C@]12CC[C@H]3[C@@H](CCC4=C[C@@H](O)CC[C@@]43C)[C@@]1(O)CC[C@]2(O)c1ccccc1 [Comp. I - ac, 17β-Phenylandrost-4-ene-3β,14β,17α-triol] | 6.31 | 79.4 | –
C[C@]12CC[C@H]3[C@@H](CC=C4C[C@@H](O)CC[C@@]43C)[C@@]1(O)CC[C@]2(O)c1ccco1 [Comp. I - bq, 17β-(2-Furyl)androst-5-ene-3β,14β,17α-triol] | 5.01 | 79.4 | –
C[C@]12CC[C@H]3[C@@H](CCC4=C[C@@H](OCCN5CCCC5)CC[C@@]43C)[C@@]1(O)CC[C@]2(O)c1ccoc1 [Comp. I - br, 3β-(2-(1-Prrolidinyl)ethoxy)-17β-(3-furyl)androst-4-ene-14β,17α-diol] | 1.58 | 25.1 | –
C[C@]12CC[C@H]3[C@@H](CC=C4C[C@@H](O)CC[C@@]43C)[C@@]1(O)CC[C@]2(O)c1ccccc1 [Comp. I - ap, 17β-Phenylandrost-5-ene-3β,14β,17α-triol] | 7.94 | 100 | –
C[C@]12CC[C@H](O)C[C@@H]1CC[C@@H]1[C@@H]2CC[C@]2(C)[C@@](O)(c3ccsc3)CC[C@]12O [Comp. I - bk, 17β-(3-Thienyl)-5α-androstane-3β,14β,17α-triol] | 7.94 | 63.1 | –
C[C@]12CC[C@H]3[C@@H](CCC4=C[C@@H](SCCCN)CC[C@@]43C)[C@@]1(O)CC[C@]2(O)c1ccoc1 [Comp. I - by, 3β-(3-Aminopropylthio)-17β-(3-furyl)androst-4-ene-14β,17α-diol] | 1.58 | 12.6 | –
COc1ccc([C@@]2(O)CC[C@]3(O)[C@@H]4CCC5=C[C@@H](O)CC[C@]5(C)[C@H]4CC[C@]23C)cc1 [Comp. I - bi, 17β-(4-Methoxyphenyl)androst-4-ene-3β,14β,17α-triol] | 3.16 | 39.8 | –
C[C@]12CC[C@H](O)C[C@@H]1CC[C@@H]1[C@@H]2CC[C@]2(C)[C@@](O)(c3cccnc3)CC[C@]12O [Comp. I - bl, 17β-(3-Pyridyl)-5α-androstane-3β,14β,17α-triol] | 5.01 | 63.1 | SBP (systolic blood pressure) [3]: 156 +/- 3.5 mm Hg; HR (heart rate) [3]: 318 +/- 9.5 beats/min.
C[C@]12CC[C@H]3[C@@H](C=CC4=C[C@@H](O)CC[C@@]43C)[C@@]1(O)CC[C@]2(O)c1ccccc1 [Comp. I - au, 17β-Phenylandrosta-4,6-diene-3β,14β,17α-triol] | 5.01 | 31.6 | –
C[C@]12CC[C@H]3[C@@H](CCC4=C[C@@H](OCC(O)CO)CC[C@@]43C)[C@@]1(O)CC[C@]2(O)c1ccoc1 (stereo partly drawn) [Comp. I - bv, 3β-((2RS)-2,3-Dihydroxypropoxy)-17β-(3-furyl)androst-4-ene-14β,17α-diol] | 3.98 | 79.4 | –
C[C@]12CC[C@H]3[C@@H](CCC4=C[C@@H](O)CC[C@@]43C)[C@@]1(O)CC[C@]2(O)c1ccoc1 [Comp. I - ah, 17β-(3-Furyl)androst-4-ene-3β,14β,17α-triol] | 3.16 | 50.1 | SBP (systolic blood pressure) [3]: 154 +/- 4.1 mm Hg; HR (heart rate) [3]: 315 +/- 10.1 beats/min.
CNCCO[C@@H]1C=C2CC[C@@H]3[C@H](CC[C@]4(C)[C@@](O)(c5ccoc5)CC[C@]34O)[C@@]2(C)CC1 [Comp. I - bt, 3β-(2-Methylaminoethoxy)-17β-(3-furyl)androst-4-ene-14β,17α-diol] | 3.16 | 50.1 | –
C[C@]12CC[C@H]3[C@@H](CC=C4C[C@@H](O)CC[C@@]43C)[C@@]1(O)CC[C@]2(O)c1nccs1 [Comp. I - bn, 17β-(2-Thiazolyl)androst-5-ene-3β,14β,17α-triol] | 7.94 | 63.1 | –
C[C@]12CC[C@H](O)C[C@@H]1CC[C@@H]1[C@@H]2CC[C@]2(C)[C@@](O)(c3ccccc3)CC[C@]12O [Comp. I - ay, 17β-Phenyl-5α-androstane-3β,14β,17α-triol] | 5.01 | 79.4 | –
C[C@]12CC[C@H]3[C@@H](CCC4=C[C@@H](OCCCN)CC[C@@]43C)[C@@]1(O)CC[C@]2(O)c1ccccc1 [Comp. I - ae, 3β-(3-Aminopropoxy)-17β-phenylandrost-4-ene-14β,17α-diol] | – | – | SBP (systolic blood pressure) [3]: 157 +/- 3.7 mm Hg; HR (heart rate) [3]: 312 +/- 9.4 beats/min.
CN(C)c1ccc([C@@]2(O)CC[C@]3(O)[C@@H]4CC=C5C[C@@H](O)CC[C@]5(C)[C@H]4CC[C@]23C)cc1 [Comp. I - bp, 17β-(4-(N,N-Dimethylaminophenyl))androst-5-ene-3β,14β,17α-triol] | 6.31 | 50.1 | –
C[C@]12CC[C@H]3[C@@H](CC=C4C[C@@H](O)CC[C@@]43C)[C@@]1(O)CC[C@]2(O)c1ccc(Cl)cc1 [Comp. I - bj, 17β-(4-Chlorophenyl)androst-5-ene-3β,14β,17α-triol] | 5.01 | 100 | –
C[C@]12CC[C@H](O)C[C@H]1CC[C@@H]1[C@@H]2CC[C@]2(C)[C@@](O)(C3=CC(=O)OC3)CC[C@]12O [Ref. comp., 3β,14β,17α-trihydroxy-5β-card-20(22)-enolide, reference compound] | – | – | pIC50 (Na^+,K^+ -ATPase [1]): 5.90; pIC50 (Na^+,K^+ -ATPase [2]): 5.30; SBP (systolic blood pressure) [3]: 174 +/- 2.1 mm Hg; HR (heart rate) [3]: 340 +/- 10.2 beats/min.; antihypertensive action [4]: do not show antihypertensive action
C[C@]12C=C[C@H](O)C[C@@H]1CC[C@@H]1[C@@H]2CC[C@]2(C)[C@@](O)(c3ccoc3)CC[C@]12O [Comp. I - ab, 17β-(3-Furyl)-5α-androst-1-ene-3β,14β, 17α-triol] | 3.98 | 31.6 | –
C[C@]12CC[C@H]3[C@@H](CCC4=C[C@@H](OCCCN)CC[C@@]43C)[C@@]1(O)CC[C@]2(O)c1ccoc1 [Comp. I - aj, 3β-(3-Aminopropoxy)-17β-(3-furyl)androst-4-ene-14β,17α-diol] | 1 | 12.6 | SBP (systolic blood pressure) [3]: 150 +/- 3.9 mm Hg; HR (heart rate) [3]: 310 +/- 9.0 beats/min.
C[C@]12CC[C@H]3[C@@H](CCC4=C[C@@H](OCCCNC(=N)N)CC[C@@]43C)[C@@]1(O)CC[C@]2(O)c1ccoc1 [Comp. I - bu] | 3.16 | 63.1 | –
C[C@]12CC[C@H]3[C@@H](CCC4=C[C@@H](OCCO)CC[C@@]43C)[C@@]1(O)CC[C@]2(O)c1ccoc1 [Comp. I - ai, 3β-(2-Hydroxyethoxy)-17β-(3-furyl)androst-4-ene-14β,17α-diol] | 5.01 | 39.8 | –
C[C@]12CC[C@H]3[C@@H](CCC4=C[C@@H](OCC(N)CN)CC[C@@]43C)[C@@]1(O)CC[C@]2(O)c1ccoc1 (stereo partly drawn) [Comp. I - bw, 3β-((2RS)-2,3-Diaminopropoxy)-17β-(3-furyl)-androst-4-ene-14β,17α-diol] | 3.98 | 100 | –
